Data published in patent publication US20100105610A1, “Methods of Inhibiting Tumor Cell Aggressiveness Using the Microenvironment of Human Embryonic Stem Cells” (CHILDREN'S MEMORIAL HOSPITAL, priority 2006, published 2010).

System: Nodal
Assay: Nodal protein expression, Western blot
Format: cell-based, human
Conditions: after administration of anti-Nodal Morpholino
Procedure: (§1) Protein lysates were prepared and quantified as previously described in Hess et al., 2001, Cancer Res. 61:3250-3255. Equal amounts of protein were separated by SDS-polyacrylamide gel electrophoresis under reducing conditions, and the resolved proteins were transferred onto Immobilon-P membranes (Millipore Corp., Bedford, Mass.). Membranes were blocked in 1% TBS, 0.1% Tween 20 (TBS-T) and 5% dry milk powder or 3% gelatin (for Nodal Westerns). Blots were incubated with anti-Nodal or anti-Lefty antibodies (Polyclonal rabbit anti-Nodal (H-110) 1:500 Santa Cruz Biotechnology, Santa Cruz, Calif.; Polyclonal goat anti-Lefty 1:500 R&D Systems, Minneapolis, Minn.), washed in TBS-T, and incubated with the appropriate horseradish peroxidase-labeled secondary antibody. Secondary antibodies were detected by enhanced chemiluminescence (Super Signal; Pierce, Rockford, Ill.) and exposure to autoradiography film (Molecular Technologies, St Louis, Mo.). Nodal protein was detected as two major bands at ˜48 and ˜35 kDa representing precursor and pro-Nodal respectively. Nodal often appeared as multiple bands, likely due to degradation of protein modifications. All experiments were done at least three times.
Conditioned matrices were prepared using hESCs, melanocytes, myoepithelial cells, amniotic fluid derived stem cells, or trophoblast cells on growth factor-reduced Matrigel (14 mg/mL; BD Biosciences) as previously described. Postovit et al., 2006, Stem Cells 24: 501-505. In all cases, cells were 80-100% confluent during the conditioning of the matrix. Alternatively, hESC-derived Lefty protein was seeded into Matrigel prior to polymerization. Human melanoma (C8161) or breast carcinoma (MDA-MB-231) cells, 2.5×10^5 cells/6-well dish, were subsequently exposed to this preconditioned matrix for 3 to 4 days.
as §1, with “primary antibody (Table 2),” for “anti-Nodal or anti-Lefty antibodies (Polyclonal rabbit anti-Nodal (H-110) 1:500 Santa Cruz Biotechnology, Santa Cruz, Calif.; Polyclonal goat anti-Lefty 1:500 R&D Systems, Minneapolis, Minn.),”, “TBS-T or TBS-T containing 0.5M NaCl for the Nodal Westerns,” for “TBS-T,”, “Nodal often appeared as multiple bands, likely due to degradation of protein modifications. All experiments were done at least three times.” left out

Substance: MO^Nodal: antisense Morpholino to Nodal, 5′-AAGCAGCACCTCCAGCCCTTATATC-3′ (SEQ ID NO: 20) (all phosphorodiamidate morpholino (PMO); further chemistry not fully specified)
- Nodal expression: down-regulation
